Measured values from US20230242526A1 (Zentaur Therapeutics International Limited, priority 2020, published 2023).
Values belong to the compound of their own block, whether it stands above or below them.

Tests used:
HCC1806 s.c. xenografts = experiment: HCC1806 s.c. breast cancer xenograft efficacy (tumor volume, relative tumor volume, tumor weight, TGI); format: in vivo, BALB/c nude mice; settings: 30 mg/kg P.O. BID; for Tumor Growth Inhibition D3 / Tumor Growth Inhibition D7 / Tumor Growth Inhibition D10 / Tumor Growth Inhibition D14 / Tumor Growth Inhibition D17 / Tumor Growth Inhibition D21: vs control vehicle; for Tumor Growth Inhibition D3 / Tumor volume D3: day 3; for Tumor Growth Inhibition D7 / Tumor volume D7: day 7; for Tumor Growth Inhibition D10 / Tumor volume D10: day 10; for Tumor Growth Inhibition D14 / Tumor volume D14: day 14; for Tumor Growth Inhibition D17 / Tumor volume D17: day 17; for Tumor Growth Inhibition D21 / Tumor volume D21: day 21; for Tumor volume D0 / Tumor volume D3 / Tumor volume D7 / Tumor volume D10 / Tumor volume D14 / Tumor volume D17 / Tumor volume D21 / Tumor weight: group mean; for Tumor volume D0: day 0; for Tumor weight: end of the study (Day 21)
Description: The in vivo potency of anti-tumor activities of Comp. 4, Comp. 37, Comp. 5, Comp. 28, Comp. 163, and Comp. 164 have been evaluated on the growth of HCC1806 s.c. xenografts in BALB/c nude mice.
The testing compounds Comp. 4, Comp. 37, Comp. 5, Comp. 28, Comp. 163, and Comp. 164 were prepared according the synthetic routes set forth in the above Examples. The testing formulations for compounds Comp. 4, Comp. 37, Comp. 5, Comp. 28, Comp. 163, and Comp. 164 were prepared as liquid formulation in a liquid vehicle containing 0.1% Tween-80 (purchased form Sinopharm Chemical Reagent Co., Ltd, Lot No. 20190322), 0.5% methyl cellulose (purchased from SIGMA, Lot No. SLBR8963V) in water.
A total of 42+8 female BALB/c nude mice were ordered from Shanghai LC Laboratory Animal Co. Ltd. The animals were specific pathogen free and approximately 4-5 weeks old upon arrival at PharmaLegacy Laboratories.
HCC1806 cell cultures were maintained at 37° C. under 5% CO2 in RPMI-1640 medium supplemented with 10% FBS and were subsequently cultured within 10 passages before inoculated into the mice.
(§1) When the average tumor volume reached 80-120 mm^3, 42 tumor-bearing mice were randomized into 7 groups (6 mice per group) according to tumor volume. The grouping day was defined as Day 0. Treatment was applied immediately after grouping animals on the same day.
(§2) The body weight of the testing animals were measured twice a week after grouping. Tumor volumes by the length and width of the tumor were measured by electric calipers and the tumor volume (V) was calculated as follows: V=(length×width^2)/2. The individual relative tumor volume (RTV) was calculated as follows: RTV=Vt/V0, where Vt was the volume on each day, and V0 was the volume at the beginning of the treatment.
Tumors were collected at the end of the study (Day 21), the mice were sacrificed. Tumor was collected, weighed, photographed.
(§3) Results were expressed as mean±S.E.M. Comparisons between two groups were made by corresponding test, p<0.05 were considered to be significant.

[1] = Body weight in the HCC1806 xenograft study; format: in vivo, BALB/c nude mice; settings: group mean, 30 mg/kg P.O. BID; for Body weight D0: day 0; for Body weight D3: day 3; for Body weight D7: day 7; for Body weight D10: day 10; for Body weight D14: day 14; for Body weight D17: day 17; for Body weight D21: day 21
Description: as §1, §2, §3

[2] = system: human breast squamous HCC1806 cell line; experiment: CyQUANT Direct cell proliferation assay, HCC1806; format: cell-based; settings: HCC1806, 168 h, 7 days
Text: The human ovarian carcinoma OVCAR3 cell line (ATCC HTB-161™) or human breast squamous HCC1806 cell line (ATCC CRL 2335) were obtained from American Type Culture Collection (ATCC), and maintained in culture media according to the supplier's specification.
The CyQUANT® Direct Cell Proliferation Assay Kit (Invitrogen™, catalog No. G35012) was utilized to test the inhibitory activities of the CDK2 inhibitors described in this disclosure against OVCAR3 or HCC1806 tumor cells.
CyQUANT® Direct Cell Proliferation Assay: The spent medium from the purchased tumor cell culture plate was removed and the tumor cells were washed with PBS buffer twice. Trypsin (VWR catalog No. 0458-25G) was added to digest the tumor cells until tumor cells appeared round shaped and to dissociate adherent cells from the plate wall in which they are being cultured. Then RPMI-1640 media (HCC1806, Gibco™ catalog No, A10491-01) with 10% fetal bovine serum (FBS) (Hyclone™ catalog No. SV30160.03), or RPMI-1640 media (OVCAR-3, Gibco™ catalog No. 10370-021) with 20% FBS and 0.01 mg/mL insulin was added to stop the trypsin digestion reaction. The tumor cells were lightly agitated with a liquid transfer pipette to cause tumor cells suspended in the culture media. The cells were counted. The complete medium was used to prepare tumor cell suspension.
OVCAR3 or HCC1806 cells were seeded at 40 μL/well in 384-well plates in growth media containing FBS and cultured 24 hours in the incubator at 37° C., 5% CO2. […] Compound solutions were added by Agilent Bravo liquid handler. […] The control wells contained the growth medium having 0.1% DMSO. Cells were incubated at 37° C., 5% CO2 for 7 days.
CYQUANT Direct Cell Proliferation Assay (Molecular Probes, Eugene, Oreg.) was then performed following manufacturer's instructions to prepare the detection reagents. 50 μL of detection reagent was aliquot and added to each well and the cells were incubated at 37° C. for 1 hr.
The cell culture plates were placed on TECAN M1000 microplate reader to detect the fluorescence intensity at 508 nm excitation and 527 nm emission wavelengths. Graphpad Prism 6.0 software was used for data processing, preparing cell growth curve, calculating percentage inhibition on cell growth. IC50 values were calculated by concentration-response curve fitting utilizing a four-parameter analytical method using GraphPad Prism software.

in vitro = settings: human, microsomes, pH 7.4, t1/2 human
Description: Human liver microsomes (cat. No. 452161), mouse liver microsomes (cat. No. 452701), were purchased from Corning.
Samples were analyzed using LC-MS/MS using a SCIEX API 4000 mass spectrometer coupled with Agilent HPLC analytical system. After separation on a ZORBAX XDB-C18 column (5 μm, 50×2.1 mm, column No. 50-282) using an acetonitrile-water gradient system, peaks were analyzed by mass spectroscopy (MS) using ESI ionization in Q1 and Q3 scan mode.
The LC and MS are all controlled by Analyst software.
The liver microsomes were incubated with 1.0 μM of the testing compound at 37° C. The incubation mixture contained 100 mM PBS buffer (pH=7.4), 3 mM MgCl2 and 1 mM NADPH. The concentration of liver microsome in the incubation mixture was 0.5 mg/mL for testing compound, and 0.2 mg/mL for MDZ and the total volume is 0.2 mL. […] Aliquots were withdrawn at time points of 0 min, 5 min and 20 min for MDZ. The reactions were terminated by transferring the aliquots to a methanol solution containing the internal standard […] for analytical quantification. The quenched samples were analyzed by LC-MS/MS. The incubations were carried out in duplicates. The metabolic stability of the testing compounds by the liver microsomes of human and mice is expressed as elimination half-life (t1/2). The results are shown as the means of duplicate determinations±SD.

Compound: [2H]C([2H])([2H])c1cc2cnc(NC3([2H])C([2H])([2H])CN(S(C)(=O)=O)CC3([2H])[2H])nc2n([C@@H]2CCC[C@@]2(C)O)c1=O [Comp. 164, (−)-8-((1R,2R)-2-hydroxy-2-methylcyclopentyl)-6-(methyl-d3)-2-((1-(methylsulfonyl)piperidin-4-yl-3,3,4,5,5-d5)amino)pyrido[2,3-d]pyrimidin-7(8H)-one]
tumor weight at the end of the study, in words (HCC1806 s.c. xenografts): lighter tumor but no statistic significance | Tumor Growth Inhibition D3 (HCC1806 s.c. xenografts): 29.37% | Tumor Growth Inhibition D7 (HCC1806 s.c. xenografts): 15.49% | Tumor Growth Inhibition D10 (HCC1806 s.c. xenografts): 21.94% | Tumor Growth Inhibition D14 (HCC1806 s.c. xenografts): 18.56% | Tumor Growth Inhibition D17 (HCC1806 s.c. xenografts): 29.97% | Tumor Growth Inhibition D21 (HCC1806 s.c. xenografts): 31.27% | Tumor volume D0 (HCC1806 s.c. xenografts): 112.74 mm^3 | Tumor volume D3 (HCC1806 s.c. xenografts): 243.14 mm^3 | Tumor volume D7 (HCC1806 s.c. xenografts): 545.66 mm^3 | Tumor volume D10 (HCC1806 s.c. xenografts): 817.53 mm^3 | Tumor volume D14 (HCC1806 s.c. xenografts): 1209.55 mm^3 | Tumor volume D17 (HCC1806 s.c. xenografts): 1380.25 mm^3 | Tumor volume D21 (HCC1806 s.c. xenografts): 1610.30 mm^3 | Tumor weight (HCC1806 s.c. xenografts): 2.51 g | Body weight D0 [1]: 18.47 g | Body weight D3 [1]: 18.47 g | Body weight D7 [1]: 18.70 g | Body weight D10 [1]: 18.37 g | Body weight D14 [1]: 17.86 g | Body weight D17 [1]: 18.20 g | Body weight D21 [1]: 17.29 g

Compound: [2H]C([2H])([2H])c1cc2cnc(NC3([2H])C([2H])([2H])CN(S(=O)(=O)C([2H])([2H])[2H])CC3([2H])[2H])nc2n([C@@H]2CCC[C@@]2(C)O)c1=O [Comp. 163, (−)-8-((1R,2R)-2-hydroxy-2-methylcyclopentyl)-6-(methyl-d3)-2-((1-((methyl-d3)sulfonyl)piperidin-4-yl-3,3,4,5,5-d5)amino)pyrido[2,3-d]pyrimidin-7(8H)-one]
tumor volume compared with G1 vehicle on each day (HCC1806 s.c. xenografts): significant smaller tumor volume on day 7, 17 and 21 | tumor weight at the end of the study, in words (HCC1806 s.c. xenografts): lighter tumor but no statistic significance | Tumor Growth Inhibition D3 (HCC1806 s.c. xenografts): 38.81% | Tumor Growth Inhibition D7 (HCC1806 s.c. xenografts): 34.97% | Tumor Growth Inhibition D10 (HCC1806 s.c. xenografts): 34.46% | Tumor Growth Inhibition D14 (HCC1806 s.c. xenografts): 30.36% | Tumor Growth Inhibition D17 (HCC1806 s.c. xenografts): 36.67% | Tumor Growth Inhibition D21 (HCC1806 s.c. xenografts): 40.94% | Tumor volume D0 (HCC1806 s.c. xenografts): 110.66 mm^3 | Tumor volume D3 (HCC1806 s.c. xenografts): 223.62 mm^3 | Tumor volume D7 (HCC1806 s.c. xenografts): 443.83 mm^3 | Tumor volume D10 (HCC1806 s.c. xenografts): 702.37 mm^3 | Tumor volume D14 (HCC1806 s.c. xenografts): 1048.55 mm^3 | Tumor volume D17 (HCC1806 s.c. xenografts): 1257.00 mm^3 | Tumor volume D21 (HCC1806 s.c. xenografts): 1397.61 mm^3 | Tumor weight (HCC1806 s.c. xenografts): 2.20 g | Body weight D0 [1]: 17.54 g | Body weight D3 [1]: 17.61 g | Body weight D7 [1]: 17.72 g | Body weight D10 [1]: 17.67 g | Body weight D14 [1]: 18.32 g | Body weight D17 [1]: 18.66 g | Body weight D21 [1]: 17.95 g

Compound: [2H]C1([2H])CN(S(C)(=O)=O)CC([2H])([2H])C1Nc1ncc2cc(C)c(=O)n([C@@H]3CCC[C@@]3(C)O)c2n1 [Comp. 67, (−)-8-((1R,2R)-2-hydroxy-2-methylcyclopentyl)-6-methyl-2-((1-(methylsulfonyl)piperidin-4-yl-3,3,5,5-d4)amino)pyrido[2,3-d]pyrimidin-7(8H)-one]
IC50 [2]: 65.9 nM

Compound: [2H]C([2H])([2H])S(=O)(=O)N1CCC(Nc2ncc3ccc(=O)n([C@@H]4CCC[C@@]4(C)O)c3n2)CC1 [Comp. 55, (−)-8-((1R,2R)-2-hydroxy-2-methylcyclopentyl)-2-((1-((methyl-d3)sulfonyl)piperidin-4-yl)amino)pyrido[2,3-d]pyrimidin-7(8H)-one]
half-life at 1 μM (in vitro): 5.77 h

Second part, the compound after the results:

IC50 [2]: 67.7 nM
Compound: [2H]C(F)(F)c1cc2cnc(NC3CCN(S(=O)(=O)C([2H])([2H])[2H])CC3)nc2n([C@@H]2CCC[C@@]2(C)O)c1=O [Comp. 92, (−)-6-(difluoromethyl-d)-8-((1R,2R)-2-hydroxy-2-methylcyclopentyl)-2-((1-((methyl-d3)sulfonyl)piperidin-4-yl)amino)pyrido[2,3-d]pyrimidin-7(8H)-one]

IC50 [2]: 84.5 nM
Compound: [2H]C([2H])([2H])S(=O)(=O)N1CCC(Nc2ncc3cc(C(F)F)c(=O)n([C@@H]4CCC[C@@]4(C)O)c3n2)CC1 [Comp. 85, (−)-6-(difluoromethyl)-8-((1R,2R)-2-hydroxy-2-methylcyclopentyl)-2-((1-((methyl-d3)sulfonyl)piperidin-4-yl)amino)pyrido[2,3-d]pyrimidin-7(8H)-one]

IC50 [2]: 65.5 nM
Compound: [2H]C1(Nc2ncc3cc(C(F)F)c(=O)n([C@@H]4CCC[C@@]4(C)O)c3n2)CCN(S(C)(=O)=O)CC1 [Comp. 99, (−)-6-(difluoromethyl)-8-((1R,2R)-2-hydroxy-2-methylcyclopentyl)-2-((1-(methylsulfonyl)piperidin-4-yl-4-d)amino)pyrido[2,3-d]pyrimidin-7(8H)-one]

IC50 [2]: 59 nM
Compound: C[C@@]1(O)CCC[C@H]1n1c(=O)c(C(F)F)cc2cnc(NC3CCN(S(C)(=O)=O)CC3)nc21 (racemic) [Comp. 2, (±)-8-(2-hydroxy-2-methylcyclopentyl)-6-difluoromethyl-2-((1-(methylsulfonyl)piperidin-4-yl)amino)pyrido[2,3-d]pyrimidin-7(8H)-one, reference compound]

IC50 [2]: 83.7 nM
Compound: [2H]C([2H])([2H])S(=O)(=O)N1CCC(Nc2ncc3cc(C)c(=O)n([C@@H]4CCC[C@@]4(C)O)c3n2)CC1 [Comp. 74, (−)-8-((1R,2R)-2-hydroxy-2-methylcyclopentyl)-6-methyl-2-((1-((methyl-d3)sulfonyl)piperidin-4-yl)amino)pyrido[2,3-d]pyrimidin-7(8H)-one]
